Values quoted from earlier work as cited in PMC9430692, “BRET-Based Self-Cleaving Biosensors for SARS-CoV-2 3CLpro Inhibitor Discovery” (Microbiology Spectrum, 2022).

System: SARS-CoV-2
Details: Vero E6 cells, MOI 0.01; ref [8]; read-out: Reported EC50 against SARS-CoV-2

Structure (SMILES): CC(C)(C)NC(=O)N[C@H](C(=O)N1C[C@H]2[C@@H]([C@H]1C(=O)NC(CC1CCC1)C(=O)C(N)=O)C2(C)C)C(C)(C)C (stereo partly shown) [Boceprevir]
- EC50: 15.6 µM
